Test results reported in publication PMC11359197 (Viruses, 2024).
Where a SMILES comes first, the peptide text is derived from it.

system: SARS-CoV-2 M^pro precursors Nsp4-4F-M^pro-GST and 4F-M^pro-GST; type: cell-based

Structure (SMILES) | AlphaLISA signal (precursor-mediated N-terminal processing)
CC(C)C[C@H](NC(=O)[C@H]1O[C@@H]1C(=O)O)C(=O)NCCCCN=C(N)N [E-64] | background levels
CC(NC(=O)[C@H](Cc1ccccc1)NC(=O)OCc1ccccc1)C(=O)CF (stereo partly drawn) [Z-FA-FMK] | no detectable impact
COC(=O)N[C@H](C(=O)N[C@@H](Cc1ccccc1)[C@@H](O)CN(Cc1ccc(-c2ccccn2)cc1)NC(=O)[C@@H](NC(=O)OC)C(C)(C)C)C(C)(C)C [atazanavir] | background levels
CC(C)(C)NC(=O)N[C@H](C(=O)N1C[C@H]2[C@@H]([C@H]1C(=O)NC(CC1CCC1)C(=O)C(N)=O)C2(C)C)C(C)(C)C (stereo partly drawn) [boceprevir, Boceprevir] | no detectable impact
CSCC[C@@H](C=O)NC(=O)[C@H](CC(C)C)NC(=O)[C@H](CC(C)C)NC(C)=O [calpain inhibitor II] (Ac-Leu-Leu-Met-aldehyde) | no detectable impact
Cc1cccc(C)c1OCC(=O)N[C@@H](Cc1ccccc1)[C@@H](O)C[C@H](Cc1ccccc1)NC(=O)[C@H](C(C)C)N1CCCNC1=O [lopinavir] | background levels
